The text below walks through data of ChEMBL document CHEMBL5715952 (Oncotarget, 2015).

A short description of assay [1]: Inhibition of MET/VEGFR/Tie2 in human RPMI-8226 cells assessed as reduction of cell growth incubated for 72 hrs by CellTiter 96 aqueous one solution cell proliferation assay. It is filed as cell-based. To be noted: RPMI-8226, 72 h.
Assay [2] is described as follows: Ratio of IC50 for inhibition of MET/VEGFR/Tie2 in human RPMI-8226 cells assessed as reduction of cell viability to IC50 for inhibition of MET/VEGFR/Tie2 in human RPMI-8226/BR resistant cells assessed as reduction of cell viability. The conditions noted are these: condition multiple myeloma.
Assay [3] is described as follows: Inhibition of MET/VEGFR/Tie2 in human bortezomib-resistant ANBL6 cells assessed as reduction of cell growth incubated for 72 hrs by CellTiter 96 aqueous one solution cell proliferation assay. It is filed as cell-based.
The nature of assay [4]: Ratio of IC50 for inhibition of MET/VEGFR/Tie2 in human ANBL6 cells assessed as reduction of cell viability to IC50 for inhibition of MET/VEGFR/Tie2 in human ANBL6/BR resistant cells assessed as reduction of cell viability. The conditions noted are these: condition multiple myeloma.
The nature of assay [5]: Inhibition of MET/VEGFR/Tie2 in human ANBL-6 cells assessed as reduction of cell growth incubated for 72 hrs by CellTiter 96 aqueous one solution cell proliferation assay. It is filed as cell-based. To be noted: ANBL-6, 72 h.
Assay [6] in a line: Inhibition of MET/VEGFR/Tie2 in bortezomib Resistant human RPMI-8226 cells assessed as reduction of cell growth incubated for 72 hrs by CellTiter 96 aqueous one solution cell proliferation assay. It is filed as cell-based. The conditions noted are these: Bortezomib-resistant RPMI-8226, 72 h.
Assay [7] in a line: Inhibition of MET/VEGFR/Tie2 in human U-266 cells assessed as reduction of cell growth incubated for 72 hrs by CellTiter 96 aqueous one solution cell proliferation assay. The format is cell-based. To be noted: U-266, 72 h.
Assay [8] is described as follows: Ratio of IC50 for inhibition of MET/VEGFR/Tie2 in human RPMI-8226 cells assessed as reduction of cell viability to IC50 for inhibition of MET/VEGFR/Tie2 in human melphalan-resistant RPMI-8226 cells assessed as reduction of cell viability. To be noted: time 72 hrs; condition multiple myeloma.
Assay [9] in a line: Inhibition of MET/VEGFR/Tie2 in Melphalan Resistant human RPMI-8226 cells assessed as reduction of cell growth incubated for 72 hrs by CellTiter 96 aqueous one solution cell proliferation assay. The format is cell-based. The conditions noted are these: Melphalan-resistant RPMI-8226 cell.
A short description of assay [10]: Inhibition of MEK/MAPK in human U-266 cells assessed as reduction of cell growth incubated for 72 hrs by CellTiter 96 aqueous one solution cell proliferation assay. It is filed as cell-based. The conditions noted are these: U-266, 72 h.
The nature of assay [11]: Inhibition of MEK/MAPK in human ANBL-6 cells assessed as reduction of cell growth incubated for 72 hrs by CellTiter 96 aqueous one solution cell proliferation assay. To be noted: ANBL-6, 72 h. The format is cell-based.
Assay [12] in a line: Inhibition of MEK/MAPK in human RPMI-8226 cells assessed as reduction of cell growth incubated for 72 hrs by CellTiter 96 aqueous one solution cell proliferation assay. It is filed as cell-based. To be noted: RPMI-8226, 72 h.
Assay [13] in a line: Ratio of IC50 for inhibition of MEK/MAPK in human RPMI-8226 cells assessed as reduction of cell viability to IC50 for inhibition of MEK/MAPK in human RPMI-8226/BR resistant cells assessed as reduction of cell viability. The conditions noted are these: condition multiple myeloma.
A short description of assay [14]: Ratio of IC50 for inhibition of MEK/MAPK in human ANBL6 cells assessed as reduction of cell viability to IC50 for inhibition of MEK/MAPK in human ANBL6/BR resistant cells assessed as reduction of cell viability. To be noted: condition multiple myeloma.
The nature of assay [15]: Ratio of IC50 for inhibition of MEK/MAPK in human RPMI-8226 cells assessed as reduction of cell viability to IC50 for inhibition of MEK/MAPK in human melphalan-resistant RPMI-8226 cells assessed as reduction of cell viability. The conditions noted are these: time 72 hrs; condition multiple myeloma.
Assay [16] can be described thus: Inhibition of MEK/MAPK in human bortezomib-resistant ANBL6 cells assessed as reduction of cell growth incubated for 72 hrs by CellTiter 96 aqueous one solution cell proliferation assay. The format is cell-based.
Assay [17] can be described thus: Inhibition of MEK/MAPK in bortezomib Resistant human RPMI-8226 cells assessed as reduction of cell growth incubated for 72 hrs by CellTiter 96 aqueous one solution cell proliferation assay. The format is cell-based. The conditions noted are these: Bortezomib-resistant RPMI-8226, 72 h.
Assay [18] is described as follows: Inhibition of MEK/MAPK in melphalan-resistant human RPMI-8226 cells assessed as reduction of cell growth incubated for 72 hrs by CellTiter 96 aqueous one solution cell proliferation assay. The format is cell-based. To be noted: Melphalan-resistant RPMI-8226 cell.
Assay [19] can be described thus: Ratio of IC50 for inhibition of PI3K/mTOR in human RPMI-8226 cells assessed as reduction of cell viability to IC50 for inhibition of PI3K/mTOR in human melphalan-resistant RPMI-8226 cells assessed as reduction of cell viability. The conditions noted are these: time 72 hrs; condition multiple myeloma.
Assay [20] in a line: Ratio of IC50 for inhibition of PI3K/mTOR in human ANBL6 cells assessed as reduction of cell viability to IC50 for inhibition of PI3K/mTOR in human ANBL6/BR resistant cells assessed as reduction of cell viability. To be noted: condition multiple myeloma.
Assay [21] is described as follows: cells. To be noted: Homo sapiens, RPMI-8226, 72 h.
A short description of assay [22]: cells. The conditions noted are these: Homo sapiens, Bortezomib-resistant RPMI-8226, 72 h.
Assay [23] is described as follows: cells. To be noted: Homo sapiens, U-266, 72 h.
A short description of assay [24]: cells. The conditions noted are these: Homo sapiens, ANBL-6, 72 h.
Assay [25] is described as follows: cells. The conditions noted are these: Homo sapiens, Melphalan-resistant RPMI-8226 cell, 72 h.
The nature of assay [26]: Ratio of IC50 for inhibition of PI3K/mTOR in human RPMI-8226 cells assessed as reduction of cell viability to IC50 for inhibition of PI3K/mTOR in human RPMI-8226/BR resistant cells assessed as reduction of cell viability. To be noted: condition multiple myeloma.
The nature of assay [27]: cells. To be noted: Homo sapiens, Bortezomib-resistant ANBL6 cell, 72 h.
Assay [28] can be described thus: cells. The conditions noted are these: Homo sapiens, U-266, 72 h. The source holds these as a separate data set.
A short description of assay [29]: cells. To be noted: Homo sapiens, Melphalan-resistant RPMI-8226 cell, 72 h. This is another data set of the same source.
Assay [30] is described as follows: cells. To be noted: Homo sapiens, Bortezomib-resistant ANBL6 cell, 72 h. This is another data set of the same source.
Assay [31] in a line: cells. To be noted: Homo sapiens, RPMI-8226, 72 h. The source holds these as a separate data set.
Assay [32] in a line: cells. The conditions noted are these: Homo sapiens, ANBL-6, 72 h. This is another data set of the same source.
A short description of assay [33]: Ratio of IC50 for inhibition of BCR-ABL/KIT/LCK/EPHA/DDR in human ANBL6 cells assessed as reduction of cell viability to IC50 for inhibition of BCR-ABL/KIT/LCK/EPHA/DDR in human ANBL6/BR resistant cells assessed as reduction of cell viability. The conditions noted are these: condition multiple myeloma.
Assay [34] is described as follows: Ratio of IC50 for inhibition of BCR-ABL/KIT/LCK/EPHA/DDR in human RPMI-8226 cells assessed as reduction of cell viability to IC50 for inhibition of BCR-ABL/KIT/LCK/EPHA/DDR in human RPMI-8226/BR resistant cells assessed as reduction of cell viability. The conditions noted are these: condition multiple myeloma.
The nature of assay [35]: Ratio of IC50 for inhibition of BCR-ABL/KIT/LCK/EPHA/DDR in human RPMI-8226 cells assessed as reduction of cell viability to IC50 for inhibition of BCR-ABL/KIT/LCK/EPHA/DDR in human melphalan-resistant RPMI-8226 cells assessed as reduction of cell viability. The conditions noted are these: time 72 hrs; condition multiple myeloma.
The nature of assay [36]: cells. To be noted: Homo sapiens, Bortezomib-resistant RPMI-8226, 72 h. The source holds these as a separate data set.

As usually defined, the IC50 is the midpoint of a concentration-inhibition curve. As to `Cn1cnc(-c2cc3nccc(Oc4ccc(NC(=S)NC(=O)Cc5ccccc5)cc4F)c3s2)c1`, the IC50 amounted to 8.91 µM in assay [1]; 9.33 µM in assay [3]; 10 µM in assay [5]; 6.46 µM in assay [6]; 10 µM in [7]; 10 µM in [9]. Further, the “Ratio IC50” value stood at 1.55 in assay [2], 1.07 in assay [4] and 0.9 in assay [8].

Consider `O=C(NOCC1CC1)c1ccc(F)c(F)c1Nc1ccc(I)cc1Cl` [CI-1040], for which the IC50 stood at 5.13 µM in [10]; 8.13 µM in [11]; 2040 nM in assay [12]; 10 µM in assay [16]; 7.59 µM in [17]; 4.9 µM in assay [18]. For the same molecule, the results for the “Ratio IC50” value in assay [13], in assay [14] and in [15] were 0.27, 0.81 and 0.6, respectively.

On to `Cn1c(=O)n(-c2ccc(C(C)(C)C#N)cc2)c2c3cc(-c4cnc5ccccc5c4)ccc3ncc21` [DACTOLISIB], for which the “Ratio IC50” value in [19] is on record as 0.4; in [20], 1.68; in assay [26], 0.45. For the same molecule, the IC50 in the assay “cells [21]” came out at 17.2 nM; in the assay “cells [22]”, 38.2 nM; in “cells [23]” it was 56 nM; in “cells [24]”, 82.3 nM; in the assay “cells [25]”, 92.2 nM; in the assay “cells [27]”, 48.9 nM.

`Cc1cn(-c2cc(NC(=O)c3ccc(C)c(Nc4nccc(-c5cccnc5)n4)c3)cc(C(F)(F)F)c2)cn1` [NILOTINIB]: the IC50 in the assay “cells [28]” was 10 µM; in “cells [29]”, 10 µM; in “cells [30]”, 10 µM; in “cells [31]” it was 9.83 µM; in “cells [32]”, 10 µM; in “cells [36]”, 10 µM. The “Ratio IC50” value in [33], in [34] and in [35] was 1 in each case.
